Assay results reported in ChEMBL document CHEMBL1201862, “PubChem BioAssay data set” (2004).
One block for each compound: values may come before it. Activity calls are given as the source filed them.

How the values were obtained:
[1] = molecular target: Peroxisome proliferator-activated receptor gamma/Nuclear receptor coactivator 2 (Homo sapiens, UniProt P37231); assay type: functional;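 also: agonist potency for raising coactivator recruitment to the receptor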
[2] = molecular target: Peroxisome proliferator-activated receptor gamma/Nuclear receptor coactivator 1 (Homo sapiens, UniProt P37231); assay type: functional;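 also: agonist potency as compounds enhance coactivator SRC-1 recruitment to PPARgamma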
[3] = molecular target: Peroxisome proliferator-activated receptor gamma/Nuclear receptor coactivator 3 (Homo sapiens, UniProt P37231); assay type: functional;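 also: agonist potency for raising coactivator recruitment to the receptor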
[4] = molecular target: Transitional endoplasmic reticulum ATPase (Homo sapiens, UniProt P55072, C522A); experiment: C522A mutant p97 ATPase inhibitors, dose response, counter-screen for p97 inhibitor project, biochemical, luminescence (AID 1544)
Transitional endoplasmic reticulum ATPase (Homo sapiens, UniProt P55072, C522A), sequence (P55072 2-806 C522A limits assumed): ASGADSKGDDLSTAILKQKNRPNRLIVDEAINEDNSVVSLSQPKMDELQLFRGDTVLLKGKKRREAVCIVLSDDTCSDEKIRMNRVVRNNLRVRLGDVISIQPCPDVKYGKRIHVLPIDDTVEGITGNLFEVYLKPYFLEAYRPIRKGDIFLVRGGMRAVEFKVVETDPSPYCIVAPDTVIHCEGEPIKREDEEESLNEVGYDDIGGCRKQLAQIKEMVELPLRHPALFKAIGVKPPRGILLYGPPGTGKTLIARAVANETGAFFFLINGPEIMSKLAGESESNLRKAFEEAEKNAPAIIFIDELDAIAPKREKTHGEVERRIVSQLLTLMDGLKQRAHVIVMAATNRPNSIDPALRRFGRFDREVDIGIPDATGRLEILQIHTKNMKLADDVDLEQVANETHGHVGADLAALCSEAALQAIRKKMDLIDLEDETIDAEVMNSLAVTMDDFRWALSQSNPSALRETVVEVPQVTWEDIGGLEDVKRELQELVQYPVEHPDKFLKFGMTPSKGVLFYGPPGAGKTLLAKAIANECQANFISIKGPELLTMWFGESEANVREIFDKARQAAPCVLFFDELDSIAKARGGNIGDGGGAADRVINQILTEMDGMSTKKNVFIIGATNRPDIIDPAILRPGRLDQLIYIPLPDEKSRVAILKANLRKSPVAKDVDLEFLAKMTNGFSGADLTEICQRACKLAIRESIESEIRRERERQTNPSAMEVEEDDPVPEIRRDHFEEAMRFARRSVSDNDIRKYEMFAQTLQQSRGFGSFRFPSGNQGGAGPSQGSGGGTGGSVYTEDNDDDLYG

[5] = molecular target: Transitional endoplasmic reticulum ATPase (Homo sapiens, UniProt P55072); experiment: p97 ATPase inhibitors, dose response, biochemical (AID 1534)
Transitional endoplasmic reticulum ATPase (Homo sapiens, UniProt P55072), sequence (P55072 whole entry, the tested form may be a part): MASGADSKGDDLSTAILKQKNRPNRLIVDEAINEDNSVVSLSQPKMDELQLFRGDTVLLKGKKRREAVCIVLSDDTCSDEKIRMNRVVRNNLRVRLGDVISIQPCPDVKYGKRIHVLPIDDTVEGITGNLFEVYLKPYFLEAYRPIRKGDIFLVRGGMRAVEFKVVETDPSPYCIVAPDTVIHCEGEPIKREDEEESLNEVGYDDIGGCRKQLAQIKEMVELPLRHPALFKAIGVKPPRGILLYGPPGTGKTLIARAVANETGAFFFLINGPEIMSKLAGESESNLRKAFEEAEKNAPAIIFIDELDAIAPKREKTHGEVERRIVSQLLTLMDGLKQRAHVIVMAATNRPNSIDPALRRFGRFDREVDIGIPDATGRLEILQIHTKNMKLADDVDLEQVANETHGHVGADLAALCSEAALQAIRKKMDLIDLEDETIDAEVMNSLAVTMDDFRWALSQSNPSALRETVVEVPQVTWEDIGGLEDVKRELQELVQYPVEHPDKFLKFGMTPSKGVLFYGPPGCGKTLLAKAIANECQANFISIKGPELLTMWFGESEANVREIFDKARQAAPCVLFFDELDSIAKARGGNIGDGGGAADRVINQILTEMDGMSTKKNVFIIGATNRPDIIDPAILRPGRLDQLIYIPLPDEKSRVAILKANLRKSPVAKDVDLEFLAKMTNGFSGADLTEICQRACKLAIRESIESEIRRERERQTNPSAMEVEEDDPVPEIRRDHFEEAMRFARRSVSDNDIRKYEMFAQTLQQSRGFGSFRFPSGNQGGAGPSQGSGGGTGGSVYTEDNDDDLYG

[6] = molecular target: T1, Estrogen receptor (Homo sapiens, UniProt P03372); experiment: potentiators of ERα–SRC-1 coactivator binding, dose response, biochemical, TR-FRET, ERα LBD (AID 737)
T1 sequence (P03372 whole entry): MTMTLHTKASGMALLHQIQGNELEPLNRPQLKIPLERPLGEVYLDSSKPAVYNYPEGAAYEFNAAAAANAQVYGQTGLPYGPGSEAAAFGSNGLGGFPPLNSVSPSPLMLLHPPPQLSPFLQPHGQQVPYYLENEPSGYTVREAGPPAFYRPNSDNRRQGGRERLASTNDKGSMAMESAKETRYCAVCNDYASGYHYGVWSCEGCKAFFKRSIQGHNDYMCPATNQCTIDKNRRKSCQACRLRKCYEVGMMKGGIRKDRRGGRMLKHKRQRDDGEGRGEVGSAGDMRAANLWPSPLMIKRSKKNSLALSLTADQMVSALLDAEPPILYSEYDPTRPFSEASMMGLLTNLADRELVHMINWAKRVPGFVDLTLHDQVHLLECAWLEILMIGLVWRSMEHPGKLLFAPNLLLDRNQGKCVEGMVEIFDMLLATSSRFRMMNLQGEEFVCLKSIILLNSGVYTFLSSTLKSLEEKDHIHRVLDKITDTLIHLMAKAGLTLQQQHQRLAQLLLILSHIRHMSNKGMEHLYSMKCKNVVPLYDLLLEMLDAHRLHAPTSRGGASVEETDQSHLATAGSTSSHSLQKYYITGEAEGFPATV

[7] = molecular target: Potassium voltage-gated channel subfamily KQT member 2 (Rattus norvegicus, UniProt O88943); experiment: retigabine-insensitive KCNQ2 potentiators, concentration-response, dose response, cell-based, retigabine-insensitive compounds (AID 2654); assay type: functional
Potassium voltage-gated channel subfamily KQT member 2, sequence (O88943 whole entry): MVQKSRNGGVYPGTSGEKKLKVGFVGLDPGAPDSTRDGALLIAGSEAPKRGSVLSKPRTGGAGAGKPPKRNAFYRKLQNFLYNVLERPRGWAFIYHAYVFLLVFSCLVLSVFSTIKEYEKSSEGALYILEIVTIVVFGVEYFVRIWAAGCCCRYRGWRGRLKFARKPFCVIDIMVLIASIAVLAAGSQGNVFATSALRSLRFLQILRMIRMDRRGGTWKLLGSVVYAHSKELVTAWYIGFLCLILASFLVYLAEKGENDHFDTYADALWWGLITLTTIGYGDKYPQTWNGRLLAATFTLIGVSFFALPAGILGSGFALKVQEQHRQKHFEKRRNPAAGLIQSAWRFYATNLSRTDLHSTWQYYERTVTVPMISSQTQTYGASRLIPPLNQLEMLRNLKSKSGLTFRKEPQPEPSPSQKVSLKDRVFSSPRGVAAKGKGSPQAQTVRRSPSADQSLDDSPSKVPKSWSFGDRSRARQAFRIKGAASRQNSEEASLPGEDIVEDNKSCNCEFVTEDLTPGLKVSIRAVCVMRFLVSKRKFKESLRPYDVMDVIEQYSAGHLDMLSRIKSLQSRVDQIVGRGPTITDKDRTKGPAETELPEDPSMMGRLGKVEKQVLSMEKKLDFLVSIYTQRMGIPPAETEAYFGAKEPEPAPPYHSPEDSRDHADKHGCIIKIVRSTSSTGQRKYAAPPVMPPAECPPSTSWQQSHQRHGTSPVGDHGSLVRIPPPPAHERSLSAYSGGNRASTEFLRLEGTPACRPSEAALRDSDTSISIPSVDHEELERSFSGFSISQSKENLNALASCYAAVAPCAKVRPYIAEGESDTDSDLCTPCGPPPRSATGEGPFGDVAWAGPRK

[8] = molecular target: Neuropeptide Y receptor type 1 (Homo sapiens, UniProt P25929); assay type: functional;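 also: HEK293 cells with a CNG channel challenged with NPY then isoproterenol; potency as antagonist that reverses NPY suppression of cAMP signal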
Neuropeptide Y receptor type 1, sequence (P25929 whole entry): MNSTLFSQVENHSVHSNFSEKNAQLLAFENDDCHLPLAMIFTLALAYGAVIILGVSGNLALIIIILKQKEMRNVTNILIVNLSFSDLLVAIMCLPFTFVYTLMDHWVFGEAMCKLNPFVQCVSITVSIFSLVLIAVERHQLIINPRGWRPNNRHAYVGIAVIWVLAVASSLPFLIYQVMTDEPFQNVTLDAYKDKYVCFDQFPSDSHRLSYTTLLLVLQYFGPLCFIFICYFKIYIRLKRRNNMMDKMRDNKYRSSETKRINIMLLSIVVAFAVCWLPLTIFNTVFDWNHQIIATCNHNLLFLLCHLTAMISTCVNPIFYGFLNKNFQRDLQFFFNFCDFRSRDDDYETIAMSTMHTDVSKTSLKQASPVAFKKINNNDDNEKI

[9] = molecular target: Neuropeptide Y receptor type 2 (Homo sapiens, UniProt P49146); assay type: functional, cell-based;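 also: HEK293 cells expressing the receptor and a CNG channel; stimulus was NPY near EC95 followed by isoproterenol to raise cAMP; antagonist potency measured as restoring cAMP signal that NPY suppresses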
Neuropeptide Y receptor type 2, sequence (P49146 whole entry): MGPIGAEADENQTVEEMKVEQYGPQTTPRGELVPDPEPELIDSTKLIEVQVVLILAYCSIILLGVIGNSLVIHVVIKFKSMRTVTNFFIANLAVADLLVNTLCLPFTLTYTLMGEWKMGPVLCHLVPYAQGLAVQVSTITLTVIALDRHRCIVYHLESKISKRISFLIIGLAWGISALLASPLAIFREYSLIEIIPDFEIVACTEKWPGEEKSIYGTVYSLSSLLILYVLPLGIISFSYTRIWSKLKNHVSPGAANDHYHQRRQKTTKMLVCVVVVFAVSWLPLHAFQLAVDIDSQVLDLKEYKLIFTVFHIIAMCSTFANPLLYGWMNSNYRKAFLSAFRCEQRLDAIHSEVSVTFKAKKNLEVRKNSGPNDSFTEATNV

[10] = molecular target: Induced myeloid leukemia cell differentiation protein Mcl-1 (Homo sapiens, UniProt Q07820); experiment: MCL1-BIM BH3 interaction inhibitors, dose response, biochemical, fluorescence polarization, BIM-BH3 peptide, 1536-well (AID 2217)
Induced myeloid leukemia cell differentiation protein Mcl-1, sequence (Q07820 whole entry): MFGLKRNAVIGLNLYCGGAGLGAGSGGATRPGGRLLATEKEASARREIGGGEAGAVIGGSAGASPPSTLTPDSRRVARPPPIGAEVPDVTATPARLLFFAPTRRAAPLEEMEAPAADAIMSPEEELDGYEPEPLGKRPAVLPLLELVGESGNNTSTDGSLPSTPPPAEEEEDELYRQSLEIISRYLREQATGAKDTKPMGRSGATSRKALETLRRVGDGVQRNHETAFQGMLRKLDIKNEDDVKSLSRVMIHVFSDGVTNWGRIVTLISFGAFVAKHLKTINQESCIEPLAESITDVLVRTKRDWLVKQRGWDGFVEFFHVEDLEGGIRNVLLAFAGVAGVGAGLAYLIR

[11] = molecular target: Bcl-2-like protein 1 (Homo sapiens, UniProt Q07817); experiment: BCL-XL inhibitors, dose response, selectivity assay for MCL1 inhibitor project, biochemical, fluorescence polarization, 1536-well (AID 2218)
Bcl-2-like protein 1, sequence (Q07817 whole entry, the tested form may be a part): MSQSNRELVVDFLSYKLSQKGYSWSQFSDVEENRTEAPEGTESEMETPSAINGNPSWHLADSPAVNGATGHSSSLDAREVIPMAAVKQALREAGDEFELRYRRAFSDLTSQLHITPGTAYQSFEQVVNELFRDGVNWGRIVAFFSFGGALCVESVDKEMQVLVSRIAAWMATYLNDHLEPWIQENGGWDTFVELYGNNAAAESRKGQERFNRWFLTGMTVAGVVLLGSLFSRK

[12] = molecular target: T2, Carboxy-terminal domain RNA polymerase II polypeptide A small phosphatase 1 (Homo sapiens, UniProt Q9GZU7); experiment: inhibitors of CTDSP1, concentration-response testing, biochemical assay, absorbance-based, actives from ultra-high-throughput screening (AID 540297); assay type: functional
T2 sequence (Q9GZU7 whole entry): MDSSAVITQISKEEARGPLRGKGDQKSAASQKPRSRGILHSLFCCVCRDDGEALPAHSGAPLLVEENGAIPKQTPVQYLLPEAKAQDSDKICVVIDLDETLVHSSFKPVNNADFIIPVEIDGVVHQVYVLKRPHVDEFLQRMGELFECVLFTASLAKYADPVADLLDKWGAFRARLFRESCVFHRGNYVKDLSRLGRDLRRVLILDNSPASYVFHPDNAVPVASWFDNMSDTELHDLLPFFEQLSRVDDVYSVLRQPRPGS

[13] = molecular target: T3, Caspase-6 (Homo sapiens, UniProt P55212); experiment: human caspase-6 inhibitors, dose response, biochemical, VEID-R110 fluorescence, cherry-pick (AID 720632)
T3 sequence (P55212 whole entry): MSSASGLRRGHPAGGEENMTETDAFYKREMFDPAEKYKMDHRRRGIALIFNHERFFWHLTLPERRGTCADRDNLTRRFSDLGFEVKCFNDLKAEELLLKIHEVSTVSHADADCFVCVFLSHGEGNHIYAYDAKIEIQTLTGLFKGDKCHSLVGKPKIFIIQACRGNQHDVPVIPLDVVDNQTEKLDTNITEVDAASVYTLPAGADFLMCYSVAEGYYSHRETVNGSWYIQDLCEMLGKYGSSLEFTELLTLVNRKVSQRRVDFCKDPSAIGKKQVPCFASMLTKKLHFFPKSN

[14] = molecular target: T4, E3 ubiquitin-protein ligase XIAP (Homo sapiens, UniProt P98170); experiment: Counter Screen using XIAP-Bir3 for Chemical Antagonists of Bir1/2 domains of IAP-family anti-apoptotic proteins. [Related pubchem assays (depositor defined):AID1018, AID1449, AID1514, AID1638, AID1749, AID1750, AID488957, AID488963]
T4 sequence (P98170 whole entry): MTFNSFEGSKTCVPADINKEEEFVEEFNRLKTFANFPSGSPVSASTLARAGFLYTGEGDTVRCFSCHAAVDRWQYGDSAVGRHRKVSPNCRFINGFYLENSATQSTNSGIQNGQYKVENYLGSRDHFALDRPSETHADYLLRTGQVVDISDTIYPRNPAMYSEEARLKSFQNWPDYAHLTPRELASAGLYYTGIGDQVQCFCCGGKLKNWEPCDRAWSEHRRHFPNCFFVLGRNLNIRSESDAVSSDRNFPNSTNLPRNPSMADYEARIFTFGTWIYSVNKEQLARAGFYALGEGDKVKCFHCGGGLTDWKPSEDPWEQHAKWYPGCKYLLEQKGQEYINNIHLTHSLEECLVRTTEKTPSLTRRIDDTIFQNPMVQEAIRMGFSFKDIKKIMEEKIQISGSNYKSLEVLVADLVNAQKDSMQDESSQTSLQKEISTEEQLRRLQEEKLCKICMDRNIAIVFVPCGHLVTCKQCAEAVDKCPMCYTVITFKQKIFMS

[15] = molecular target: T4, E3 ubiquitin-protein ligase XIAP; experiment: XIAP antagonists, biochemical, IAP family, fluorescence polarization (AID 1018); assay type: functional
[16] = molecular target: T5, Mannose-6-phosphate isomerase (Homo sapiens, UniProt P34949); experiment: inhibitors of human PMI, primary screen, biochemical, fluorescence intensity, coupled assay (AID 1209)
T5 sequence (P34949 whole entry): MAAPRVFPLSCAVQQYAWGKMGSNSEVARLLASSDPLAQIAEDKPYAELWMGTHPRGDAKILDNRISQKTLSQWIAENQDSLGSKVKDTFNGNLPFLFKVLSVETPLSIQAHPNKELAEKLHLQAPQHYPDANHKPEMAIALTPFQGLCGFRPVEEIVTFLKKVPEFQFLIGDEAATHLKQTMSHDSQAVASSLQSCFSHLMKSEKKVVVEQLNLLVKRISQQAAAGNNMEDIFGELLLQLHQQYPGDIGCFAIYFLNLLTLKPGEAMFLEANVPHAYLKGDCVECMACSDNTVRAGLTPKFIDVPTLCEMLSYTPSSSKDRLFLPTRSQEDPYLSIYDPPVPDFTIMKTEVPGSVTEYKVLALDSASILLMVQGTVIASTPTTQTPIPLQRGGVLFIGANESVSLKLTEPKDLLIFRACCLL

Compound: COc1cccc(C(=O)OCC(=O)Nc2sc3c(c2C(N)=O)CCC3)c1O
- IC50 [10]: 50.2 µM (not active)
- IC50 [11]: > 109 µM (not active)
- IC50 [12]: 3.73 µM (active)
- AC50 [13]: 17.7 µM (active)

Compound: COc1ccc(CC(=O)Oc2cc(C)nc(O)c2[N+](=O)[O-])cc1
- IC50 [14]: > 100 µM (inactive)
- IC50 [15]: > 100 µM (not active)

Compound: CC(C)c1ccc(N2C(=O)CC(Sc3nc[nH]n3)C2=O)cc1 (stereo unspecified)
- IC50 [16]: > 50 µM (not active)

Next, values leading:

- EC50 [1]: > 26.5 µM (not active)
- EC50 [2]: > 79.4 µM (not active)
- EC50 [3]: 9.38 µM (active)
- IC50 [4]: > 50 µM (not active)
- IC50 [5]: > 50 µM (not active)
Compound: N#Cc1c(NC(=O)c2ccccc2Cl)n(Cc2ccccc2)c2nc3ccccc3nc12

- EC50 [6]: 7.51 µM (active)
Compound: COc1ccc(-c2nnc(SCC(=O)c3cc(C)n(Cc4cccs4)c3C)o2)cc1

- EC50 [7]: 203 µM (active)
Compound: COc1ccc(NC(=O)Nc2cccnc2)cc1

- IC50 [8]: 5.16 µM (active)
- IC50 [9]: 9.67 µM (active)
Compound: O=C(COc1ccccc1CNCc1ccccc1)Nc1ccccc1
